Source: patent publication US11426467B2, “Dosage regimes for the administration of an anti-CD25 ADC” (ADC THERAPEUTICS SA, priority 2017, dated 2022)

Experiment: Steroid administration with ADC, toxicity symptoms reported by subjects
Assay type: in vivo
Conditions: steroid given with ADC dosage regimes

In the case of `C[C@@H]1C[C@H]2[C@@H]3CCC4=CC(=O)C=C[C@]4(C)[C@@]3(F)[C@@H](O)C[C@]2(C)[C@@]1(O)C(=O)CO` [dexamethasone, (8S,9R,10S,11S,13S,14S,16R,17R)-9-Fluoro-11,17-dihydroxy-17-(2-hydroxyacetyl)-10,13,16-trimethyl-6,7,8,9,10,11,12,13,14,15,16,17-dodecahydro-3H-cyclopenta[a]phenanthren-3-one], the “frequency and/or severity of toxicity symptom reported by subjects” value is reported as “reduced the frequency and/or severity of toxicity symptom”.
